Reference: US20140275280A1 (COYOTE PHARMACEUTICALS, INC., priority 2013, published 2014)

Columns and labels:
[1] = Pharmacological activity of GGA isomers (data of the examples, test not specified); details: at low concentrations
HSP70 [2] = experiment: Time course of HSP70 expression by ELISA in select tissues after oral CNS-102; type: in vivo, Sprague-Dawley rats; details: 12 mg/kg p.o
Experimental: CNS-102 at 12 mg/kg or PBS was administered orally to Sprague-Dawley rats and the time course of HSP70 protein expression in tissues, was measured by ELISA. HSP70 protein expression was determined for lung, testicle, spleen, liver, kidney, blood plasma, skin, peripheral blood monocytes, heart, eye, muscle, intestine, and stomach at each of three time points (8 h, 17 h, 24 h).

HSP70 [3] = experiment: Time course of HSP70 expression by western blot in cortex and hippocampus after oral CNS-102; type: in vivo; design: HSP70 expression (western blot), treatment average: scale not given here
Experimental: The time course of protein expression, as measured by western blot for HSP70, was determined in triplicate for hippocampus, and cortex tissue samples taken from each of 5 animals per group at each of four time points (24, 48, 72, and 96 h) after treatment with either PBS or 12 mg/kg CNS-102, administered orally. The average expression for each treatment group is calculated at each time point for each tissue using PROC MIXED in SAS and are tabulated, along with the difference (delta) between treatment averages and a p-value comparing the difference to zero, below.

With CC(=O)CC/C=C(/C)CC/C=C(\C)CC/C=C(\C)CCC=C(C)C (single isomer, unassigned) [cis-isomer of GGA, 5Z, 9E, 13E geranylgeranyl acetone] the “pharmacological activity and dose-dependent relationship” value [1] was “at best of minimal activity”.

With CC(=O)CC/C=C(\C)CC/C=C(\C)CC/C=C(\C)CCC=C(C)C (single isomer, unassigned) [trans-isomer of GGA, 5E, 9E, 13E geranylgeranyl acetone] the “pharmacological activity and dose-dependent relationship” value [1] was “pharmacologically active and shows a dose-dependent relationship”.

With CC(=O)CC/C=C(\C)CC/C=C(\C)CC/C=C(\C)CCC=C(C)C [CNS-102] the “HSP70 Fold Induction vs. Vehicle Control” value (HSP70 [2]; Intestine, 8 h) was 1.63 fold, the “HSP70 Fold Induction vs. Vehicle Control” value (HSP70 [2]; Intestine, 17 h) was 1.26 fold and the “HSP70 Fold Induction vs. Vehicle Control” value (HSP70 [2]; Intestine, 24 h) was 0.64 fold. For the same molecule, the “HSP70 Fold Induction vs. Vehicle Control” value (HSP70 [2]; PBMC, 8 h) was 1.67 fold, the “HSP70 Fold Induction vs. Vehicle Control” value (HSP70 [2]; PBMC, 17 h) was 1.05 fold and the “HSP70 Fold Induction vs. Vehicle Control” value (HSP70 [2]; PBMC, 24 h) was 1.09 fold. For the same molecule, the “HSP70 Fold Induction vs. Vehicle Control” value (HSP70 [2]; Stomach, 8 h) was 1.07 fold, the “HSP70 Fold Induction vs. Vehicle Control” value (HSP70 [2]; Stomach, 17 h) was 1.30 fold and the “HSP70 Fold Induction vs. Vehicle Control” value (HSP70 [2]; Stomach, 24 h) was 0.96 fold. The “HSP70 Fold Induction vs. Vehicle Control” value (HSP70 [2]; heart, 17 h) was 1.89 fold, the “HSP70 Fold Induction vs. Vehicle Control” value (HSP70 [2]; heart, 24 h) was 0.60 fold and the “HSP70 Fold Induction vs. Vehicle Control” value (HSP70 [2]; kidney, 8 h) was 1.11 fold. The “HSP70 Fold Induction vs. Vehicle Control” value (HSP70 [2]; kidney, 17 h) was 1.08 fold, the “HSP70 Fold Induction vs. Vehicle Control” value (HSP70 [2]; kidney, 24 h) was 0.92 fold and the “HSP70 Fold Induction vs. Vehicle Control” value (HSP70 [2]; liver, 8 h) was 1.24 fold. The “HSP70 Fold Induction vs. Vehicle Control” value (HSP70 [2]; liver, 17 h) was 1.00 fold, the “HSP70 Fold Induction vs. Vehicle Control” value (HSP70 [2]; liver, 24 h) was 0.89 fold and the “HSP70 Fold Induction vs. Vehicle Control” value (HSP70 [2]; plasma, 8 h) was 0.88 fold. The “HSP70 Fold Induction vs. Vehicle Control” value (HSP70 [2]; plasma, 17 h) was 1.09 fold, the “HSP70 Fold Induction vs. Vehicle Control” value (HSP70 [2]; plasma, 24 h) was 1.05 fold and the “HSP70 Fold Induction vs. Vehicle Control” value (HSP70 [2]; spleen, 8 h) was 0.64 fold. The “HSP70 Fold Induction vs. Vehicle Control” value (HSP70 [2]; spleen, 17 h) was 1.09 fold, the “HSP70 Fold Induction vs. Vehicle Control” value (HSP70 [2]; spleen, 24 h) was 1.04 fold and the “HSP70 Fold Induction vs. Vehicle Control” value (HSP70 [2]; testicle, 8 h) was 1.10 fold. For the same molecule, the “HSP70 Fold Induction vs. Vehicle Control” value (HSP70 [2]; testicle, 17 h) was 1.03 fold, the “HSP70 Fold Induction vs. Vehicle Control” value (HSP70 [2]; testicle, 24 h) was 0.94 fold and the “HSP70 expression (western blot), treatment average” value (shortened to “HSP70 expression (western blot)”) (HSP70 [3]; cortex, 24 hours after 12 mg/kg oral) was −0.016. The “HSP70 expression (western blot)” value (HSP70 [3]; cortex, 48 hours after 12 mg/kg oral) was −0.45, the “HSP70 expression, delta CNS-102 vs PBS” value (HSP70 [3]; cortex, 48 hours, 12 mg/kg oral, p-value 0.15) was 0.11 and the “HSP70 expression (western blot)” value (HSP70 [3]; cortex, 72 hours after 12 mg/kg oral) was 0.14. For the same molecule, the “HSP70 expression, delta CNS-102 vs PBS” value (HSP70 [3]; cortex, 72 hours, 12 mg/kg oral, p-value 0.13) was 0.13, the “HSP70 expression (western blot)” value (HSP70 [3]; cortex, 96 hours after 12 mg/kg oral) was 0.04 and the “HSP70 expression, delta CNS-102 vs PBS” value (HSP70 [3]; cortex, 96 hours, 12 mg/kg oral, p-value 0.09) was 0.19. The “levels of HSP70 in the cortex after 24 h” value (HSP70 [3]; cortex, time points after 24 h, 12 mg/kg oral) was “No significant levels”, the “time of peak HSP70 expression in the hippocampus” value (HSP70 [3]; hippocampus, 12 mg/kg oral) was greater than 48 h and the “HSP70 expression (western blot)” value (HSP70 [3]; hippocampus, 24 hours after 12 mg/kg oral) was −0.159. The “HSP70 expression, delta CNS-102 vs PBS” value (HSP70 [3]; hippocampus, 24 hours, 12 mg/kg oral, p-value 0.16) was −0.088, the “HSP70 expression (western blot)” value (HSP70 [3]; hippocampus, 48 hours after 12 mg/kg oral) was 0.02 and the “HSP70 expression, delta CNS-102 vs PBS” value (HSP70 [3]; hippocampus, 48 hours, 12 mg/kg oral, p-value 0.14) was 0.2. The “HSP70 expression (western blot)” value (HSP70 [3]; hippocampus, 72 hours after 12 mg/kg oral) was −0.06, the “HSP70 expression (western blot)” value (HSP70 [3]; hippocampus, 96 hours after 12 mg/kg oral) was −0.32 and the “HSP70 expression, delta CNS-102 vs PBS” value (HSP70 [3]; hippocampus, 96 hours, 12 mg/kg oral, p-value 0.07) was 0.17.
